Laboratory results: article PMC8632988, “Inhibition of SYK and cSrc kinases can protect bone and cartilage in preclinical models of osteoarthritis and rheumatoid arthritis” (Scientific Reports, 2021)
Values joined by “and” are separate entries in the source; they are usually repeats but may differ in a detail not shown here. Equal entries are not always repeated. Where two headings read alike, the source gives them in different places.

Key:
THP-1 cells = test: Inhibition of TNF-α secretion by activated monocytes; type: cell-based; details: Homo sapiens, differentiated monocytes, IgG-coated plates, read-out: IC50, inhibition of TNF-α release
Method: The assay was performed at A. N. Bakh Institute of Biochemistry, Russia. Human leukemia monocytic THP-1 cells obtained from Russian collection cell cultures (RCCC) were cultured in 5% CO2 humidified atmosphere at 37 °C in RPMI 1640 supplemented with 100 U mL^–1 penicillin/streptomycin, 2% FBS and 20 μM β-mercaptoethanol. THP-1 cells were incubated in 5% CO2 atmosphere at 37 °C in RPMI 1640 medium. To induce differentiation the cells were treated with IFN-g for six days. 96-well culture plate coated with combined human IgG were incubated during night at 4 °C (or for 1 h at 37 °C). To evaluate baseline cell simulation F(ab’)2 was used as a negative control in part of wells. Unbounded antibodies were removed with sodium-phosphate buffer. A solution of test compound (MT-SYK-03 or) and differentiated cells in cultivating medium were added in each well. […] Each concentration was tested in triplicate; the experiment was replicated twice. For dose–response curve see Fig. S3.

[1] = Tissue distribution after single oral administration in rats; type: in vivo, rat; details: for Bone concentration / Joint concentration / Kidney concentration / Liver concentration / concentration at 2 h / concentration at 8 h / concentration at 24 h / Muscle concentration / Prostate concentration / Spleen concentration: 100 mg/kg; for Kp / concentration at 2 h / concentration at 8 h / concentration at 24 h / Cmax / Tmax / AUC / AUC(0-inf) / half-life: rat; for concentration at 2 h / concentration at 8 h / concentration at 24 h: po; for AUC: read-out: AUC24; for half-life: read-out: Terminal t1/2 (converted)
Method: Experiments were performed at ChemPartner, Shanghai, China and approved by Institutional Ethics Committee (IEC) of ChemPartner. Male Wistar 10–12 weeks old rats with body weights of 185–220 g and male New Zealand rabbits with body weights of 2.0–2.3 kg were purchased from Shanghai SLAC Laboratory Animal Co., Ltd. MT-SYK-03 was administered to the three groups of rats (six rats per group) via oral gavage at 10 mL/kg concentration, and in rabbits 5 mL/kg concentration. Blood samples were kept on ice and centrifuged (2000 g, 4 ℃, 5 min) within 15 min post sampling.

[2] = bone, 100 mg/kg PO, male Wistar rats, Estimated Value
[3] = joint, 100 mg/kg PO, male Wistar rats, Estimated Value
[4] = kidney, 100 mg/kg PO, male Wistar rats, Estimated Value
[5] = liver, 100 mg/kg PO, male Wistar rats, Estimated Value
[6] = muscle, 100 mg/kg PO, male Wistar rats, Estimated Value
[7] = prostate, 100 mg/kg PO, male Wistar rats, Estimated Value
[8] = spleen, 100 mg/kg PO, male Wistar rats, Estimated Value

COc1cc(Nc2ncnc(Nc3cc4c(cn3)NC(=O)C(C)(C)O4)n2)cc(OC)c1OC [MT-SYK-03]
IC50 (THP-1 cells): 480 nM | Bone concentration ([1]; bone, 100 mg/kg PO, male Wistar rats, 2 h, individual animals): 433 ng/mL and 576 ng/mL | Bone concentration ([1]; bone, 100 mg/kg PO, male Wistar rats, 8 h, individual animals): 1290 ng/mL and 681 ng/mL and 153 ng/mL | Bone concentration ([1]; bone, 100 mg/kg PO, male Wistar rats, 24 h, individual animals): 8.28 ng/mL and 19.9 ng/mL and 14.5 ng/mL | Joint concentration ([1]; joint, 100 mg/kg PO, male Wistar rats, 2 h, individual animals): 584 ng/mL and 631 ng/mL | Joint concentration ([1]; joint, 100 mg/kg PO, male Wistar rats, 8 h, individual animals): 1100 ng/mL and 673 ng/mL and 216 ng/mL | Joint concentration ([1]; joint, 100 mg/kg PO, male Wistar rats, 24 h, individual animals): 12.2 ng/mL and 20.4 ng/mL and 8.49 ng/mL | Kidney concentration ([1]; kidney, 100 mg/kg PO, male Wistar rats, 2 h, individual animals): 2880 ng/mL and 3160 ng/mL | Kidney concentration ([1]; kidney, 100 mg/kg PO, male Wistar rats, 8 h, individual animals): 1200 ng/mL and 375 ng/mL and 260 ng/mL | Kidney concentration ([1]; kidney, 100 mg/kg PO, male Wistar rats, 24 h, individual animals): 5.30 ng/mL and 72.0 ng/mL and 8.51 ng/mL | Liver concentration ([1]; liver, 100 mg/kg PO, male Wistar rats, 2 h, individual animals): 4700 ng/mL and 6610 ng/mL | Liver concentration ([1]; liver, 100 mg/kg PO, male Wistar rats, 8 h, individual animals): 1860 ng/mL and 635 ng/mL and 442 ng/mL | Liver concentration ([1]; liver, 100 mg/kg PO, male Wistar rats, 24 h, individual animals): 7.95 ng/mL and 115 ng/mL and 12.8 ng/mL | Kp ([1]; male, Wistar, bone and cartilage tissues, rats, single oral administration, read-out: Exposure in bone and cartilage tissues relative to plasma): 3 | concentration at 2 h ([1]; male, Wistar, bone, bone, 100 mg/kg PO, male Wistar rats, 2 h, individual animals, read-out: Bone concentration): 327 ng/mL | concentration at 2 h ([1]; male, Wistar, bone, bone, 100 mg/kg PO, male Wistar rats, 2 h, mean, read-out: Bone concentration, Mean): 445 ng/mL | concentration at 8 h ([1]; male, Wistar, bone, bone, 100 mg/kg PO, male Wistar rats, 8 h, mean, read-out: Bone concentration, Mean): 708 ng/mL | concentration at 24 h ([1]; male, Wistar, bone, bone, 100 mg/kg PO, male Wistar rats, 24 h, mean, read-out: Bone concentration, Mean): 14.2 ng/mL | concentration at 2 h ([1]; male, Wistar, joint, joint, 100 mg/kg PO, male Wistar rats, 2 h, individual animals, read-out: Joint concentration): 470 ng/mL | concentration at 2 h ([1]; male, Wistar, joint, joint, 100 mg/kg PO, male Wistar rats, 2 h, mean, read-out: Joint concentration, Mean): 562 ng/mL | concentration at 8 h ([1]; male, Wistar, joint, joint, 100 mg/kg PO, male Wistar rats, 8 h, mean, read-out: Joint concentration, Mean): 663 ng/mL | concentration at 24 h ([1]; male, Wistar, joint, joint, 100 mg/kg PO, male Wistar rats, 24 h, mean, read-out: Joint concentration, Mean): 13.7 ng/mL | concentration at 2 h ([1]; male, Wistar, kidney, kidney, 100 mg/kg PO, male Wistar rats, 2 h, individual animals, read-out: Kidney concentration): 2350 ng/mL | concentration at 2 h ([1]; male, Wistar, kidney, kidney, 100 mg/kg PO, male Wistar rats, 2 h, mean, read-out: Kidney concentration, Mean): 2800 ng/mL | concentration at 8 h ([1]; male, Wistar, kidney, kidney, 100 mg/kg PO, male Wistar rats, 8 h, mean, read-out: Kidney concentration, Mean): 612 ng/mL | concentration at 24 h ([1]; male, Wistar, kidney, kidney, 100 mg/kg PO, male Wistar rats, 24 h, mean, read-out: Kidney concentration, Mean): 28.6 ng/mL | concentration at 2 h ([1]; male, Wistar, liver, liver, 100 mg/kg PO, male Wistar rats, 2 h, individual animals, read-out: Liver concentration): 4450 ng/mL | concentration at 2 h ([1]; male, Wistar, liver, liver, 100 mg/kg PO, male Wistar rats, 2 h, mean, read-out: Liver concentration, Mean): 5250 ng/mL | concentration at 8 h ([1]; male, Wistar, liver, liver, 100 mg/kg PO, male Wistar rats, 8 h, mean, read-out: Liver concentration, Mean): 979 ng/mL | concentration at 24 h ([1]; male, Wistar, liver, liver, 100 mg/kg PO, male Wistar rats, 24 h, mean, read-out: Liver concentration, Mean): 45.3 ng/mL | concentration at 2 h ([1]; male, Wistar, muscle, muscle, 100 mg/kg PO, male Wistar rats, 2 h, individual animals, read-out: Muscle concentration): 456 ng/mL | concentration at 2 h ([1]; male, Wistar, muscle, muscle, 100 mg/kg PO, male Wistar rats, 2 h, mean, read-out: Muscle concentration, Mean): 436 ng/mL | concentration at 8 h ([1]; male, Wistar, muscle, muscle, 100 mg/kg PO, male Wistar rats, 8 h, individual animals, read-out: Muscle concentration): 160 ng/mL | concentration at 8 h ([1]; male, Wistar, muscle, muscle, 100 mg/kg PO, male Wistar rats, 8 h, mean, read-out: Muscle concentration, Mean): 120 ng/mL | concentration at 24 h ([1]; male, Wistar, muscle, muscle, 100 mg/kg PO, male Wistar rats, 24 h, individual animals, read-out: Muscle concentration): 4.68 ng/mL | concentration at 24 h ([1]; male, Wistar, muscle, muscle, 100 mg/kg PO, male Wistar rats, 24 h, mean, read-out: Muscle concentration, Mean): 6.8 ng/mL | concentration at 2 h ([1]; male, Wistar, prostate, prostate, 100 mg/kg PO, male Wistar rats, 2 h, individual animals, read-out: Prostate concentration): 1070 ng/mL | concentration at 2 h ([1]; male, Wistar, prostate, prostate, 100 mg/kg PO, male Wistar rats, 2 h, mean, read-out: Prostate concentration, Mean): 1260 ng/mL | concentration at 8 h ([1]; male, Wistar, prostate, prostate, 100 mg/kg PO, male Wistar rats, 8 h, mean, read-out: Prostate concentration, Mean): 251 ng/mL | concentration at 24 h ([1]; male, Wistar, prostate, prostate, 100 mg/kg PO, male Wistar rats, 24 h, individual animals, read-out: Prostate concentration): 21.6 ng/mL | concentration at 24 h ([1]; male, Wistar, prostate, prostate, 100 mg/kg PO, male Wistar rats, 24 h, mean, read-out: Prostate concentration, Mean): 21.6 ng/mL | concentration at 2 h ([1]; male, Wistar, spleen, spleen, 100 mg/kg PO, male Wistar rats, 2 h, individual animals, read-out: Spleen concentration): 2060 ng/mL | concentration at 2 h ([1]; male, Wistar, spleen, spleen, 100 mg/kg PO, male Wistar rats, 2 h, mean, read-out: Spleen concentration, Mean): 1910 ng/mL | concentration at 8 h ([1]; male, Wistar, spleen, spleen, 100 mg/kg PO, male Wistar rats, 8 h, mean, read-out: Spleen concentration, Mean): 374 ng/mL | concentration at 24 h ([1]; male, Wistar, spleen, spleen, 100 mg/kg PO, male Wistar rats, 24 h, individual animals, read-out: Spleen concentration): 30.3 ng/mL | concentration at 24 h ([1]; male, Wistar, spleen, spleen, 100 mg/kg PO, male Wistar rats, 24 h, mean, read-out: Spleen concentration, Mean): 30.3 ng/mL | Muscle concentration ([1]; muscle, 100 mg/kg PO, male Wistar rats, 2 h, individual animals): 435 ng/mL and 416 ng/mL | Muscle concentration ([1]; muscle, 100 mg/kg PO, male Wistar rats, 8 h, individual animals): 107 ng/mL and 93.2 ng/mL | Muscle concentration ([1]; muscle, 100 mg/kg PO, male Wistar rats, 24 h, individual animals): 8.92 ng/mL and BQL | Prostate concentration ([1]; prostate, 100 mg/kg PO, male Wistar rats, 2 h, individual animals): 1200 ng/mL and 1500 ng/mL | Prostate concentration ([1]; prostate, 100 mg/kg PO, male Wistar rats, 8 h, individual animals): 500 ng/mL and 154 ng/mL and 98.0 ng/mL | Prostate concentration ([1]; prostate, 100 mg/kg PO, male Wistar rats, 24 h, individual animals): BQL | Cmax [1, 2]: 708 ng/mL | Tmax [1, 2]: 8 h | AUC [1, 2]: 9680 ng·h/mL | Kp ([1]; bone, 100 mg/kg PO, male Wistar rats, Estimated Value, read-out: AUC24/AUC24 (plasma)): 2.5 | Cmax [1, 3]: 663 ng/mL | Tmax [1, 3]: 8 h | AUC [1, 3]: 9650 ng·h/mL | Kp ([1]; joint, 100 mg/kg PO, male Wistar rats, Estimated Value, read-out: AUC24/AUC24 (plasma)): 2.49 | AUC(0-inf) [1, 4]: 18300 ng·h/mL | Cmax [1, 4]: 2800 ng/mL | Tmax [1, 4]: 2 h | AUC [1, 4]: 18100 ng·h/mL | Kp ([1]; kidney, 100 mg/kg PO, male Wistar rats, Estimated Value, read-out: AUC24/AUC24 (plasma)): 4.68 | half-life [1, 4]: 3.38 h | AUC(0-inf) [1, 5]: 32400 ng·h/mL | Cmax [1, 5]: 5250 ng/mL | Tmax [1, 5]: 2 h | AUC [1, 5]: 32100 ng·h/mL | Kp ([1]; liver, 100 mg/kg PO, male Wistar rats, Estimated Value, read-out: AUC24/AUC24 (plasma)): 8.3 | half-life [1, 5]: 3.28 h | AUC(0-inf) [1, 6]: 3150 ng·h/mL | Cmax [1, 6]: 436 ng/mL | Tmax [1, 6]: 2 h | AUC [1, 6]: 3120 ng·h/mL | Kp ([1]; muscle, 100 mg/kg PO, male Wistar rats, Estimated Value, read-out: AUC24/AUC24 (plasma)): 0.805 | half-life [1, 6]: 3.7 h | AUC(0-inf) [1, 7]: 8080 ng·h/mL | Cmax [1, 7]: 1260 ng/mL | Tmax [1, 7]: 2 h | AUC [1, 7]: 7960 ng·h/mL | Kp ([1]; prostate, 100 mg/kg PO, male Wistar rats, Estimated Value, read-out: AUC24/AUC24 (plasma)): 2.05 | half-life [1, 7]: 3.89 h | AUC(0-inf) [1, 8]: 12200 ng·h/mL | Cmax [1, 8]: 1910 ng/mL | Tmax [1, 8]: 2 h | AUC [1, 8]: 12000 ng·h/mL | Kp ([1]; spleen, 100 mg/kg PO, male Wistar rats, Estimated Value, read-out: AUC24/AUC24 (plasma)): 3.1 | half-life [1, 8]: 3.81 h | Spleen concentration ([1]; spleen, 100 mg/kg PO, male Wistar rats, 2 h, individual animals): 1420 ng/mL and 2260 ng/mL | Spleen concentration ([1]; spleen, 100 mg/kg PO, male Wistar rats, 8 h, individual animals): 726 ng/mL and 129 ng/mL and 268 ng/mL | Spleen concentration ([1]; spleen, 100 mg/kg PO, male Wistar rats, 24 h, individual animals): BQL
